According to patent publication US7064120B2, “Tricyclic pyridyl carboxamides and derivatives thereof tocolytic oxytocin receptor antagonists” (Wyeth, priority 2001, dated 2006):

target: T1, human vasopressin V1a receptor subtype (Homo sapiens, UniProt P37288); assay: Vasopressin binding in CHO cell membranes expressing human vasopressin V1a subtype receptors ([3H]Manning ligand radioligand binding); conditions: 100 nM
T1 construct: host or cells: CHO cells, stably transfected (pZeoSV vector for the Thibonnier line)
Method in brief: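 Membranes from CHO cells expressing human V1a, 25–50 μg protein/well, incubated 60 min at room temperature with [3H]Manning ligand (20 μL of 8 nM stock) in 50 mM Tris-HCl pH 7.4 with BSA, MgCl2 and protease inhibitors. Filtration then scintillation counting; reported as % inhibition or IC50 (nM).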

T1 sequence (P37288 whole entry): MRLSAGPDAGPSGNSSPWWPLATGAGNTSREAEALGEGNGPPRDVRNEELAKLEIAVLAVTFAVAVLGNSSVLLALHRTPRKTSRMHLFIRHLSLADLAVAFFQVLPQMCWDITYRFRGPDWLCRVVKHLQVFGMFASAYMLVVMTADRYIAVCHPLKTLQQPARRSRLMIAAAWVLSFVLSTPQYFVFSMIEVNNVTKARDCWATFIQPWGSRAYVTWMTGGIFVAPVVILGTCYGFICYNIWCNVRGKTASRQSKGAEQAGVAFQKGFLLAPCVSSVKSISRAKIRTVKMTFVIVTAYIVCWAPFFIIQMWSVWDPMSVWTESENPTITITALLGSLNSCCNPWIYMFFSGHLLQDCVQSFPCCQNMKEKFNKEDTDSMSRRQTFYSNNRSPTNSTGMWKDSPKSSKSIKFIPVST

Going from COc1cc(-c2ccccc2C)c(Cl)cc1C(=O)N1Cc2ccc(C(=O)N3CCN(c4ccccn4)CC3)n2Cc2ccccc21 [Example 81, {10-[(6-Chloro-3-methoxy-2′-methyl-[1,1′-biphenyl]-4-yl)carbonyl]-10,11-dihydro-5H-pyrrolo[2,1-c][1,4]benzodiazepin-3-yl}[4-(2-pyridinyl)-1-piperazinyl]methanone] to COc1cc(C(=O)N2Cc3ccc(C(=O)N4CCN(c5ccccn5)CC4)n3Cc3ccccc32)ccc1-c1ccccc1C [Example 80, {10-[(2-Methoxy-2′-methyl-[1,1′-biphenyl]-4-yl)carbonyl]-10,11-dihydro-5H-pyrrolo[2,1-c][1,4]benzodiazepin-3-yl}[4-(2-pyridinyl)-1-piperazinyl]methanone], the inhibition at 0.1 µM rises from -6% to 6%.

Going from COc1cc(C(=O)N2Cc3ccc(C(=O)N(C)CCc4ccccn4)n3Cc3ccccc32)ccc1-c1ccccc1C [Example 69, 10-[(2-Methoxy-2′-methyl-[1,1′-biphenyl]-4-yl)carbonyl]-N-methyl-N-[2-(2-pyridinyl)ethyl]-10,11-dihydro-5H-pyrrolo[2,1-c][1,4]benzodiazepine-3-carboxamide] to COc1cc(C(=O)N2Cc3ccc(C(=O)N(C)CCc4ccccn4)n3Cc3ccccc32)ccc1-c1cccc2ccccc12 [Example 71, 10-[3-Methoxy-4-(naphthalen-1-yl)benzoyl]-N-methyl-N-[2-(2-pyridinyl)ethyl]-10,11-dihydro-5H-pyrrolo[2,1-c][1,4]benzodiazepine-3-carboxamide], the inhibition at 0.1 µM falls from 72% to 20%.

Compared with COc1cccc(-c2ccc(C(=O)N3Cc4ccc(C(=O)N5CCN(c6ccccn6)CC5)n4Cc4ccccc43)cc2OC)c1 [Example 85, {10-[(2,3′-Dimethoxy-[1,1′-biphenyl]-4-yl)carbonyl]-10,11-dihydro-5H-pyrrolo[2,1-c][1,4]benzodiazepin-3-yl}[4-(2-pyridinyl)-1-piperazinyl]methanone], Cc1ccccc1-c1ccc(C(=O)N2Cc3ccc(C(=O)N4CCN(c5ccccn5)CC4)n3Cc3ccccc32)cc1 [Example 79, {10-[(2′-Methyl-[1,1′-biphenyl]-4-yl)carbonyl]-10,11-dihydro-5H-pyrrolo[2,1-c][1,4]benzodiazepin-3-yl}[4-(2-pyridinyl)-1-piperazinyl]methanone] is higher in inhibition at 0.1 µM: -5% for the first, 18% for the second.

Compared with COc1ccccc1-c1ccc(C(=O)N2Cc3ccc(C(=O)NCc4ccncc4)n3Cc3ccccc32)cc1OC [Example 97, 10-[(2,2′-Dimethoxy-[1,1′-biphenyl]-4-yl)carbonyl]-N-(4-pyridinylmethyl)-10,11-dihydro-5H-pyrrolo[2,1-c][1,4]benzodiazepine-3-carboxamide], Cc1ccccc1-c1ccc(C(=O)N2Cc3ccc(C(=O)NCc4ccncc4)n3Cc3ccccc32)cc1C [Example 89, 10-[(2,2′-Dimethyl-[1,1′-biphenyl]-4-yl)carbonyl]-N-(4-pyridinylmethyl)-10,11-dihydro-5H-pyrrolo[2,1-c][1,4]benzodiazepine-3-carboxamide] is higher in inhibition at 0.1 µM: 4% for the first, 29% for the second.

First: COc1cccc(-c2cc(OC)c(C(=O)N3Cc4ccc(C(=O)N(C)CCc5ccccn5)n4Cc4ccccc43)cc2Cl)c1 [Example 70, 10-[(6-Chloro-3,3′-dimethoxy-[1,1′-biphenyl]-4-yl)carbonyl]-N-methyl-N-[2-(2-pyridinyl)ethyl]-10,11-dihydro-5H-pyrrolo[2,1-c][1,4]benzodiazepine-3-carboxamide]
Second: COc1cccc(-c2cc(OC)c(C(=O)N3Cc4ccc(C(=O)NCc5ccncc5)n4Cc4ccccc43)cc2Cl)c1 [Example 95, 10-[(6-Chloro-3,3′-dimethoxy-[1,1′-biphenyl]-4-yl)carbonyl]-N-(4-pyridinylmethyl)-10,11-dihydro-5H-pyrrolo[2,1-c][1,4]benzodiazepine-3-carboxamide]
The inhibition at 0.1 µM of the first is higher: 8% for the first, 1% for the second.

Compared with COc1ccccc1-c1ccc(C(=O)N2Cc3ccc(C(=O)N(C)Cc4cccnc4)n3Cc3ccccc32)cc1 [Example 104, 10-[(2′-Methoxy-[1,1′-biphenyl]-4-yl)carbonyl]-N-methyl-N-(3-pyridinylmethyl)-10,11-dihydro-5H-pyrrolo[2,1-c][1,4]benzodiazepine-3-carboxamide], Cc1ccccc1-c1ccc(C(=O)N2Cc3ccc(C(=O)NCc4ccncc4)n3Cc3ccccc32)cc1 [Example 92, 10-[(2′-Methyl-[1,1′-biphenyl]-4-yl)carbonyl]-N-(4-pyridinylmethyl)-10,11-dihydro-5H-pyrrolo[2,1-c][1,4]benzodiazepine-3-carboxamide] is lower in inhibition at 0.1 µM: 32% for the first, 21% for the second.

Cc1cc(C(=O)N2Cc3ccc(C(=O)N4CCN(c5ccccn5)CC4)n3Cc3ccccc32)ccc1-c1ccccc1C(F)(F)F [Example 87, (10-{[2-Methyl-2′-trifluoromethyl-[1,1′-biphenyl]-4-yl]carbonyl}-10,11-dihydro-5H-pyrrolo[2,1-c][1,4]benzodiazepin-3-yl)[4-(2-pyridinyl)-1-piperazinyl]methanone] and O=C(c1ccc2n1Cc1ccccc1N(C(=O)c1ccc(-c3cccc4ccccc34)cc1Cl)C2)N1CCN(c2ccccn2)CC1 [Example 86, {10-[2-Chloro-4-(naphthalen-1-yl)benzoyl]-10,11-dihydro-5H-pyrrolo[2,1-c][1,4]benzodiazepin-3-yl}[4-(2-pyridinyl)-1-piperazinyl]methanone] are the same in inhibition at 0.1 µM: 1% for the first, 1% for the second.

same assay, conditions: value in parentheses

Compared with COc1cc(C(=O)N2Cc3ccc(C(=O)N(C)Cc4cccnc4)n3Cc3ccccc32)ccc1-c1ccccc1C(F)(F)F [Example 7, 10-{[2-Methoxy-2′-trifluoromethyl-[1,1′-biphenyl]-4-yl]carbonyl}-N-methyl-N-(pyridin-3-ylmethyl)-10,11-dihydro-5H-pyrrolo[2,1-c][1,4]benzodiazepine-3-carboxamide], Cc1cc(C(=O)N2Cc3ccc(C(=O)N(C)Cc4cccnc4)n3Cc3ccccc32)ccc1-c1ccccc1C(F)(F)F [Example 112, N-Methyl-10-{[2-methyl-2′-trifluoromethyl-[1,1′-biphenyl]-4-yl]carbonyl}-N-(3-pyridinylmethyl)-10,11-dihydro-5H-pyrrolo[2,1-c][1,4]benzodiazepine-3-carboxamide] is 2-fold higher in IC50: 803 nM for the first, 1600 nM for the second. The first is the more potent here.

Cc1cc(C(=O)N2Cc3ccc(C(=O)N(C)Cc4ccc[n+]([O-])c4)n3Cc3ccccc32)ccc1-c1ccccc1C(F)(F)F [Example 4, N-Methyl-10-{[2-methyl-2′-trifluoromethyl-[1,1′-biphenyl]-4-yl]carbonyl}-N-[(1-oxidopyridin-3-yl)methyl]-10,11-dihydro-5H-pyrrolo[2,1-c][1,4]benzodiazepine-3-carboxamide] and COc1cc(C(=O)N2Cc3ccc(C(=O)N(C)Cc4ccc[n+]([O-])c4)n3Cc3ccccc32)ccc1-c1ccccc1C(F)(F)F [Example 8, 10-{[2-Methoxy-2′-trifluoromethyl-[1,1′-biphenyl]-4-yl]carbonyl}-N-methyl-N-(1-oxo-pyridin-3-ylmethyl)-10,11-dihydro-5H-pyrrolo[2,1-c][1,4]benzodiazepine-3-carboxamide] are within 1.5-fold of each other in IC50: 792 nM for the first, 801 nM for the second.

COc1cccc(-c2ccc(C(=O)N3Cc4ccc(C(=O)N(C)Cc5cccnc5)n4Cc4ccccc43)cc2C)c1 [Example 102, 10-[(3′-Methoxy-2-methyl-[1,1′-biphenyl]4-yl)carbonyl]-N-methyl-N-(3-pyridinyImethyl)-10,11-dihydro-5H-pyrrolo[2,1-c][1,4]benzodiazepine-3-carboxamide] and COc1ccccc1-c1ccc(C(=O)N2Cc3ccc(C(=O)N(C)Cc4cccnc4)n3Cc3ccccc32)cc1C [Example 101, 10-[(2′-Methoxy-2-methyl-[1,1′-biphenyl]-4-yl)carbonyl]-N-methyl-N-(3-pyridinylmethyl)-10,11-dihydro-5H-pyrrolo[2,1-c][1,4]benzodiazepine-3-carboxamide] are within 1.5-fold of each other in IC50: 275 nM for the first, 355 nM for the second.

Cc1cc(C(=O)N2Cc3ccc(C(=O)N4CCN(Cc5ccc[n+]([O-])c5C)CC4)n3Cc3ccccc32)ccc1-c1ccccc1C(F)(F)F [Example 3, 3-({4-[(2-Methyl-1-oxidopyridin-3-yl)methyl]piperazin-1-yl}carbonyl)-10-{[2-methyl-2′-trifluoromethyl-[1,1′-biphenyl]-4-yl]carbonyl}-10,11-dihydro-5H-pyrrolo[2,1-c][1,4]benzodiazepine] and Cc1cc(C(=O)N2Cc3ccc(C(=O)N4CCN(Cc5ccc[n+]([O-])c5)CC4)n3Cc3ccccc32)ccc1-c1ccccc1C(F)(F)F [Example 2, 10-{[2-Methyl-2′-trifluoromethyl-[1,1′-biphenyl]-4-yl]carbonyl}-3-({4-[(1-oxidopyridin-3-yl)methyl]piperazin-1-yl}carbonyl)-10,11-dihydro-5H-pyrrolo[2,1-c][1,4]benzodiazepine] cannot be ordered by IC50: greater than 3000 nM for the first, 3180 nM for the second.

Going from COc1cc(-c2ccccc2C)c(Cl)cc1C(=O)N1Cc2ccc(C(=O)N(C)CCc3ccccn3)n2Cc2ccccc21 [Example 63, 10-[(6-Chloro-3-methoxy-2′-methyl-[1,1′-biphenyl]-4-yl)carbonyl]-N-methyl-N-[2-(2-pyridinyl)ethyl]-10,11-dihydro-5H-pyrrolo[2,1-c][1,4]benzodiazepine-3-carboxamide] to COc1cc(-c2ccccc2C(F)(F)F)c(Cl)cc1C(=O)N1Cc2ccc(C(=O)N(C)Cc3cccnc3)n2Cc2ccccc21 [Example 5, 10-{[6-Chloro-3-methoxy-2′-trifluoromethyl-[1,1′-biphenyl]-4-yl]carbonyl}-N-methyl-N-(pyridin-3-ylmethyl)-10,11-dihydro-5H-pyrrolo[2,1-c][1,4]benzodiazepine-3-carboxamide], the IC50 rises from 273 nM to greater than 3000 nM.

COc1ccccc1-c1ccc(C(=O)N2Cc3ccc(C(=O)N(C)Cc4cccnc4)n3Cc3ccccc32)cc1OC [Example 103, 10-[(2,2′-Dimethoxy-[1,1′-biphenyl]-4-yl)carbonyl]-N-methyl-N-(3-pyridinylmethyl)-10,11-dihydro-5H-pyrrolo[2,1-c][1,4]benzodiazepine-3-carboxamide] was tested, and the IC50 was 449 nM.
